Reference: patent US8088808B2, “Substituted N-phenyl-bipyrrolidine carboxamides and therapeutic use thereof” (Sanofi, priority 2007, dated 2012)
Structures can show the parent of a compound that is named as a salt.

What was measured:
[1] = biological target: rhesus (Macaca Mulatta) H3 receptor (Macaca mulatta, UniProt Q865E1); experiment: Rhesus H3 radioligand binding assay ([3H]-Methylhistamine displacement, WGA SPA beads); parameters: species or system rhesus monkey (Macaca Mulatta); conditions: Table 2; procedure of Example 42
Description: (Genbank #AY231164). Stably transfected cultures were amplified in tissue culture flasks by standard tissue culture methods and induced to express rhesus H3 by exposure to 500 ng/ml tetracycline (Cellgro) for 24 hours. After induction, cells were dissociated from flasks utilizing Cell Stripper (Cellgro). Cells were centrifuged (1K×g, 5 min) and pellet frozen in an ethanol-dry ice bath to disrupt cell membranes. Frozen cell pellet was re-suspended in 5 mM HEPES (pH 7.4, Invitrogen) at 10 ml/1000 cm2 of harvested cells. The cell suspension was drawn through an 18 gauge needle (2-3×) followed by a 23 gauge needle (2-3×) to further disrupt cell membranes. The cell suspension was centrifuged (40K×g, 30 min). Cell membrane pellet was re-suspended in 5 mM HEPES (pH 7.4, Invitrogen) at a final protein concentration of 10 mg/ml. Rhesus H3 membranes were stored under liquid nitrogen prior to use in [3H]-Methylhistamine and GTPγS radioligand binding assays.
Rhesus H3 radioligand binding assay was performed using rhesus H3 receptor membranes (prepared as described above), [3H]-Methylhistamine (Perkin Elmer) and WGA SPA beads (wheat germ agglutinin scintillation proximity assay) beads (Amersham). The assay was performed in 96-well Opti-Plates (Packard). Each reaction contained 50 μl rhesus H3 membranes (20-30 μg total protein), 50 μl WGA SPA beads (0.1 μg) and 50 μl of 83 Ci/mmol [^3H]-Methylhistamine (final concentration 2 nM) and 50 μl of tested compound. The compounds of this invention and/or vehicle were diluted with binding buffer from 10 mM DMSO stocks. Assay plates were sealed with TopSeal (Perkin Elmer) and mixed on shaker (25° C., 1 hour). Assay plates were read on TopCount scintillation counter (Packard). Results were analyzed by Hill transformation and Ki values were determined by Cheng-Prusoff equation.

[2] = biological target: MCH receptor (Homo sapiens, UniProt Q99705); experiment: MCH receptor [125J]-ligand binding filtration assay; conditions: 10 μM test compound; percent inhibition of ligand binding
Description: The activity of the compounds of this invention at the MCH receptor site, if any was measured by the procedures as set forth below. • Test Compounds The compounds of this invention were stored in a 96-well microtiter plates (1 μL, 10 mM, 100% DMSO). Each of the test sample was diluted with 249 μL of 100% DMSO (dilution 1:250). […] Blank: Assay buffer containing 0.4% DMSO were transferred to the dilution microtiter plates for blanks • Assay Procedure: The filter plates with […] of 0.5% PEI-solution/well were incubated for 2 hours at room temperature. PEI was removed by vacuum filtration just before pipetting (Univac Polyfiltronic/Whatman). The solution of the compound as prepared above (50 μL), or MCH ([…]) or Puffer/DMSO (positive control) were added to 96-well round bottom microtiter plate. Then 50 μl of [^125J]-ligand solution was added followed by 100 μl of membrane suspension. The plates were closed with the lids, and incubated for 60 min. at 25° C. The samples were transferred to GF/B filter plate. The reaction mixture was removed by vacuum filtration, washed 4× with 300 μL ice-cold washing buffer and the washing solution was removed by vacuum filtration. The rubber layer at the bottom of the plate was then removed and the filters were dried over night at room temperature. 25 μL of scintillation cocktail was added and the plates were sealed and, plate frames were added and incubated for 1 hour at room temperature. The radioactivity was then measured, settings ^125J standard, 30 sec./well.

MCH receptor, sequence (Q99705 whole entry): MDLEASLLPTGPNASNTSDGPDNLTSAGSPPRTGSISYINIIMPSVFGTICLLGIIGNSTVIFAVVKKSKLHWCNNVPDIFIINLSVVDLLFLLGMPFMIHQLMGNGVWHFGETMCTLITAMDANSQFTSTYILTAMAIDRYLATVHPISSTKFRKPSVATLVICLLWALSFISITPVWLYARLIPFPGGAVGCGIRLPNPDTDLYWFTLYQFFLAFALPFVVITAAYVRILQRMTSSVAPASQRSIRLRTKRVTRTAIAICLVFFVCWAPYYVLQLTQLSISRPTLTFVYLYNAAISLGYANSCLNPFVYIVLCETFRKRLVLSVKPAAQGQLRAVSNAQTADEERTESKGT
rhesus (Macaca Mulatta) H3 receptor, sequence (Q865E1 1-445): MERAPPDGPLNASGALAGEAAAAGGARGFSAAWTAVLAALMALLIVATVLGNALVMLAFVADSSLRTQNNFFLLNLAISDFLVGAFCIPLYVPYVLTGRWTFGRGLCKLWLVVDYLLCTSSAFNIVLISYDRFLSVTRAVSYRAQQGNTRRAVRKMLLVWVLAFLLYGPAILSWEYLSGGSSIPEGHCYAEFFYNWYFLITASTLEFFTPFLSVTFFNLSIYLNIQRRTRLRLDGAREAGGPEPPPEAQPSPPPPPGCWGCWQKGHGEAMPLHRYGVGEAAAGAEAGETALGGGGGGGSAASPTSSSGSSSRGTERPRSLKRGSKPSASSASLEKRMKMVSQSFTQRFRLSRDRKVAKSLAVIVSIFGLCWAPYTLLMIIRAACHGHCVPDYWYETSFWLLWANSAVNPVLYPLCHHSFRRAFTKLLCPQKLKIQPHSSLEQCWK

SMILES: Cc1cc(C(=O)Nc2ccc(N3CC[C@H](N4CCC[C@@H]4C)C3)c(C)c2)n[nH]1 (stereo in doubt) [Example 22, 5-Methyl-1H-pyrazole-3-carboxylic acid [3-methyl-4-(2-methyl-[1,3′]bipyrrolidinyl-1′-yl)-phenyl]-amide trifluoroacetate]
- Ki [1]: 17.3 nM
- inhibition at 10 µM [2]: 5.6%

SMILES: Cc1cc(N2CC[C@H](N3CCC[C@@H]3C)C2)ccc1NC(=O)c1c(C)noc1C [Example 1, 3,5-Dimethyl-isoxazole-4-carboxylic acid [2-methyl-4-(2(2S)-methyl-[1,3′(3′S)]bipyrrolidinyl-1′-yl)-phenyl]-amide]
- Ki [1]: 0.4 nM
- inhibition at 10 µM [2]: 0.7%

SMILES: Cc1cc(N2CC[C@H](N3CCC[C@@H]3C)C2)ccc1NC(=O)C1CCCCC1 [Example 2, Cyclohexanecarboxylic acid [2-methyl-4-(2S-methyl-[1,3′S]bipyrrolidinyl-1′-yl)-phenyl]-amide trifluoro-acetate]
- Ki [1]: 0.4 nM
- inhibition at 10 µM [2]: -2.1%

SMILES: Cc1cc(N2CC[C@H](N3CCC[C@@H]3C)C2)ccc1NC(=O)C1CC2CCC1C2 (stereo partly drawn) [Example 3, Bicyclo[2.2.1]heptane-2-carboxylic acid [2-methyl-4-(2S-methyl-[1,3′S]bipyrrolidinyl-1′-yl)-phenyl]-amide trifluoro acetate]
- Ki [1]: 0.6 nM
- inhibition at 10 µM [2]: -0.8%

SMILES: Cc1cc(N2CC[C@H](N3CCC[C@@H]3C)C2)ccc1NC(=O)C1CCOCC1 [Example 4, Tetrahydro-pyran-4-carboxylic acid [2-methyl-4-(2(2S)-methyl-[1,3′(3′S)]bipyrrolidinyl-1′-yl)-phenyl]-amide]
- Ki [1]: 1 nM
- inhibition at 10 µM [2]: -1.6%

SMILES: Cc1cc(C(=O)Nc2ccc(N3CC[C@H](N4CCC[C@@H]4C)C3)cc2C)on1 [Example 5, 3-Methyl-isoxazole-5-carboxylic acid [2-methyl-4-(2S-methyl-[1,3′ S]bipyrrolidinyl-1′-yl)-phenyl]-amide trifluoro-acetate]
- Ki [1]: 1.1 nM
- inhibition at 10 µM [2]: 3.1%

SMILES: Cc1cc(NC(=O)c2c(C)noc2C)ccc1N1CCC(N2CCCC2C)C1 (stereo not drawn) [Example 7, 3,5-Dimethyl-isoxazole-4-carboxylic acid [3-methyl-4-(2-methyl-[1,3′]bipyrrolidinyl-1′-yl)-phenyl]-amide trifluoro-acetate]
- Ki [1]: 3.2 nM
- inhibition at 10 µM [2]: 5%

SMILES: Cc1cc(N2CCC(N3CCCC3C)C2)ccc1NC(=O)CC1CCCC1 (stereo not drawn) [Example 8, 2-Cyclopentyl-N-[2-methyl-4-(2-methyl-[1,3′]bipyrrolidinyl-1′-yl)-phenyl]-acetamide trifluoro-acetate]
- Ki [1]: 8.4 nM
- inhibition at 10 µM [2]: 1.4%

SMILES: CC1CCCN1C1CCN(c2ccc(NC(=O)C3CCOCC3)cc2)C1 (stereo not drawn) [Example 9, Tetrahydro-pyran-4-carboxylic acid [4-(2-methyl-[1,3′]bipyrrolidinyl-1′-yl)-phenyl]-amide trifluoro-acetate]
- Ki [1]: 8.7 nM
- inhibition at 10 µM [2]: -2.8%

SMILES: Cc1cc(N2CCC(N3CCCC3C)C2)ccc1NC(=O)C1CC1 (stereo not drawn) [Example 10, Cyclopropane carboxylic acid [2-methyl-4-(2-methyl-[1,3′]bipyrrolidinyl-1′-yl)-phenyl]-amide trifluoro-acetate]
- Ki [1]: 9.6 nM
- inhibition at 10 µM [2]: 4%

SMILES: Cc1cc(NC(=O)C2CCOCC2)ccc1N1CCC(N2CCCC2C)C1 (stereo not drawn) [Example 11, Tetrahydro-pyran-4-carboxylic acid [3-methyl-4-(2-methyl[1,3′]bipyrrolidinyl-1′-yl)-phenyl]-amide trifluoro-acetate]
- Ki [1]: 17 nM
- inhibition at 10 µM [2]: 2.7%

SMILES: Cc1cc(N2CCC(N3CCCC3C)C2)ccc1NC(=O)C1C[C@@H]2CC[C@H]1C2 (stereo partly drawn) [Example 12, (1S,4R)-Bicyclo[2.2.1]heptane-2-carboxylic acid [2-methyl-4-(2-methyl-[1,3′]bipyrrolidinyl-1′-yl)-phenyl]-amide trifluoro-acetate]
- Ki [1]: 19.9 nM
- inhibition at 10 µM [2]: -2.8%

SMILES: CC1CCCN1C1CCN(c2ccc(NC(=O)c3cn[nH]c3)cc2)C1 (stereo not drawn) [Example 13, 1H-Pyrazole-4-carboxylic acid [4-(2-methyl-[1,3′]bipyrrolidinyl-1′-yl)-phenyl]-amide trifluoro-acetate]
- Ki [1]: 22.1 nM
- inhibition at 10 µM [2]: 4.8%

SMILES: Cc1cc(C(=O)Nc2ccc(N3CC[C@H](N4CCC[C@@H]4C)C3)cc2C)n[nH]1 [Example 14, 5-Methyl-1H-pyrazole-3-carboxylic acid [2-methyl-4-(2(2S)-methyl-[1,3′(3′S)]bipyrrolidinyl-1′-yl)-phenyl]-amide]
- Ki [1]: 4.7 nM
- inhibition at 10 µM [2]: 28.3%

SMILES: Cc1cc(N2CC[C@H](N3CCC[C@@H]3C)C2)ccc1NC(=O)c1cc(C)n(C)n1 [Example 15, 1,5-Dimethyl-1H-pyrazole-3-carboxylic acid [2-methyl-4-(2(2S)-methyl-[1,3′(3′S)]bipyrrolidinyl-1′-yl)-phenyl]-amide hydrochloride]
- Ki [1]: 10.8 nM
- inhibition at 10 µM [2]: 10.3%

SMILES: Cc1cc(N2CC[C@H](N3CCC[C@@H]3C)C2)ccc1NC(=O)C1C(C)(C)C1(C)C [Example 16, 2,2,3,3-Tetramethyl-cyclopropanecarboxylic acid [2-methyl-4-(2(S)-methyl-[1,3′(S)]bipyrrolidinyl-1′-yl)-phenyl]-amide trifluoroacetate]
- Ki [1]: 0.8 nM
- inhibition at 10 µM [2]: 5.8%

SMILES: Cc1cc(N2CCC(N3CCCC3C)C2)ccc1NC(=O)C1C(C)(C)C1(C)C (stereo not drawn) [Example 17, 2,2,3,3-Tetramethyl-cyclopropanecarboxylic acid [2-methyl-4-(2-methyl-[1,3′]bipyrrolidinyl-1′-yl)-phenyl]-amide trifluoroacetate]
- Ki [1]: 37.3 nM
- inhibition at 10 µM [2]: 11.5%

SMILES: Cc1cc(N2CCC(N3CCCC3C)C2)ccc1NC(=O)c1c(C)noc1C (stereo not drawn) [Example 18, 3,5-Dimethyl-isoxazole-4-carboxylic acid [2-methyl-4-(2-methyl-[1,3′]bipyrrolidinyl-1′-yl)-phenyl]-amide trifluoroacetate]
- Ki [1]: 2.6 nM
- inhibition at 10 µM [2]: -2%

SMILES: Cc1cc(N2CC[C@H](N3CCC[C@@H]3C)C2)ccc1NC(=O)c1ccco1 [Example 19, Furan-2-carboxylic acid [2-methyl-4-(2(S)-methyl-[1,3′(S)]bipyrrolidinyl-1′-yl)-phenyl]-amide trifluoroacetate]
- Ki [1]: 3.9 nM
- inhibition at 10 µM [2]: 6%

SMILES: Cc1cc(C(=O)Nc2ccc(N3CCC(N4CCCC4C)C3)cc2C)n[nH]1 (stereo not drawn) [Example 20, 5-Methyl-1H-pyrazole-3-carboxylic acid [2-methyl-4-(2-methyl-[1,3′]bipyrrolidinyl-1′-yl)-phenyl]-amide trifluoroacetate]
- Ki [1]: 30.9 nM
- inhibition at 10 µM [2]: 24.3%

SMILES: Cc1cc(N2CC[C@H](N3CCC[C@@H]3C)C2)ccc1NC(=O)CC1CCCC1 [Example 21, 2-Cyclopentyl-N-[2-methyl-4-(2(S)-methyl-[1,3′(S)]bipyrrolidinyl-1′-yl)-phenyl]-acetamide trifluoroacetate]
- Ki [1]: 0.9 nM
- inhibition at 10 µM [2]: 1.9%

SMILES: Cc1cc(NC(=O)C2C[C@@H]3CC[C@H]2C3)ccc1N1CCC(N2CCCC2C)C1 (stereo partly drawn) [Example 23, (1S,4R)-Bicyclo[2.2.1]heptane-2-carboxylic acid [3-methyl-4-(2-methyl-[1,3′]bipyrrolidinyl-1′-yl)-phenyl]-amide trifluoroacetate]
- Ki [1]: 130 nM
- inhibition at 10 µM [2]: 11.2%

SMILES: Cc1cc(N2CCC(N3CCCC3C)C2)ccc1NC(=O)C1CCOCC1 (stereo not drawn) [Example 24, Tetrahydro-pyran-4-carboxylic acid [2-methyl-4-(2-methyl[1,3′]bipyrrolidinyl-1′-yl)-phenyl]-amide trifluoroacetate]
- Ki [1]: 6.8 nM
- inhibition at 10 µM [2]: 8.6%

SMILES: CC1CCCN1C1CCN(c2ccc(NC(=O)C3C(C)(C)C3(C)C)cc2)C1 (stereo not drawn) [Example 25, 2,2,3,3-Tetramethyl-cyclopropanecarboxylic acid [4-(2-methyl-[1,3′]bipyrrolidinyl-1′-yl)-phenyl]-amide trifluoroacetate]
- Ki [1]: 144 nM
- inhibition at 10 µM [2]: 15%
